In patent US7709497B2, “Pyrazolo[3,4-b]pyridine compound, and its use as a PDE4 inhibitor” (Glaxo Group Limited, priority 2004, dated 2010):

Key:
[1] = tested on: TNF-α (TNF-alpha) production in Human Whole Blood; assay: Inhibition of TNF-α production in Human Whole Blood; type: cell-based; conditions: LPS-stimulated, n=6, read-out: Inhibition of TNF-α production in Human Whole Blood pIC50 (converted)
Experimental: This is an optional supplementary test, e.g. for potentially orally-administrable PDE4 inhibitors. Also, as the assay measures the effect of PDE4 inhibitors after loss by protein binding, it might also be relevant to externally-topically-administrable PDE4 inhibitors as protein-binding-loss of compound is possible during transport through the skin.
Test compounds are prepared as a ca. 10 mM stock solution in DMSO and a dilution series prepared in DMSO with 8 successive 3-fold dilutions, either directly from the 10 mM stock solution or from a more dilute solution in DMSO. The compound is added to assay plates using a Biomek Fx liquid handling robot.
Heparinised blood drawn from normal volunteers is dispensed (ca. 100 μl=ca. 100 ul) into microtitre plate wells containing ca. 0.5 or ca. 1.0 μl (ul, microliters) of an appropriately diluted test compound solution. […] Plasma TNFα content is determined by electrochemiluminescence assay using the IGEN technology (see below) or by enzyme linked immunosorbant assay (ELISA) (see below).
Ca. […] 50 μl (ul) of streptavidin/biotinylated anti-TNF-α antibody mix, ca. 25 μl ruthenium tagged anti-TNF-α monoclonal and ca. 100 μl PBS containing 0.1% bovine serum albumin are added to each well and the plates are sealed and shaken for ca. 2 hours before being read on an IGEN instrument. […]

[2] = Aqueous solubility preliminary screen; type: physicochemical; conditions: pH 7.4 phosphate buffered saline with about 5% DMSO, aqueous with cosolvent or surfactant or cyclodextrin, free base, pH 7.4 PBS with about 5% DMSO, about room temperature
Experimental: Aqueous solubility: A preliminary screen aims to estimate roughly the aqueous solubility of compounds by (as an approximate summary): (i) creating a ca. 10 mM solution of the compound in DMSO, (ii) diluting a portion of this DMSO solution by mixing about 19 parts by volume of pH 7.4 aqueous phosphate buffered saline (PBS) buffer with 1 part by volume of the ca. 10 mM DMSO solution, (iii) “filtering” the mixture with the aid of centrifugation, and then (iv) measuring the concentration of the dissolved compound in the “filtrate”.

[3] = Systemic exposure after oral administration to rat(s); type: in vivo; conditions: about 1 mg/kg oral, free base, 10% DMSO and 90% PEG200/water (70:30), preliminary tests
From the text: Although the compound of formula (I) or salt thereof may be administered orally, oral administration is not presently thought to be a preferred route of administration.

IC50 [1]: 7.41 nM
solubility kinetic [2]: ~60 µg/mL
systemic exposure after oral administration [3]: low systemic exposure
SMILES: CCn1ncc2c(NC3CCN(C(N)=O)CC3)c(C(=O)NCc3ccc(C)c(C)c3)cnc21 [compound of formula (I), 4-{[1-(aminocarbonyl)-4-piperidinyl]amino}-N-[(3,4-dimethylphenyl)methyl]-1-ethyl-1H-pyrazolo[3,4-b]pyridine-5-carboxamide]
